Laboratory results from publication PMC8963254, “Effects of Lysine N-ζ-Methylation in Ultrashort Tetrabasic Lipopeptides (UTBLPs) on the Potentiation of Rifampicin, Novobiocin, and Niclosamide in Gram-Negative Bacteria” (Antibiotics, 2022).
Where two headings read alike, the source gives them in different places. Non-standard residues stand in square brackets, D forms with d. Residues, ends and D or L forms follow the SMILES beside them. *: point of attachment. Lys(Me3) = C[N+](C)(C)CCCC[C@H](N)C(=O)O; Octanoyl = CCCCCCCC(=O)*

Columns and labels:
E. cloacae 118564 [1] = type: cell-based, Enterobacter cloacae; conditions: for MICUTBLP: UTBLP alone
How it was run: (§1)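 Checkerboard synergy assay: antibiotic and OMP combined at varying concentrations with 5 × 10^5 CFU/mL inoculum (final), 37 °C, 18 h; growth read as turbidity at 590 nm. FICI = sum of FICs (MIC in combination / MIC alone); ≤0.5 synergistic, 0.5–4 additive, >4 antagonistic.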

[2] = system: P. aeruginosa PA262-101856; assay: microbe, parasite or virus in culture; type: cell-based, Pseudomonas aeruginosa; conditions: PA262-101856, 18 h
How it was run: (§2)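 Turbidity at 590 nm defined growth, from which the MIC was taken. Cultures at a final density of 5 × 10^5 CFU/mL were exposed to a range of compound levels at 37 °C for 18 h in a CLSI-based microdilution format.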

[3] = system: P. aeruginosa PA259-96196; assay: microbe, parasite or virus in culture; type: cell-based, Pseudomonas aeruginosa; conditions: PA259-96196, 18 h
How it was run: as §2

[4] = system: P. aeruginosa PA262-101856; type: cell-based, Pseudomonas aeruginosa; conditions: for MICUTBLP: UTBLP alone
How it was run: as §1

[5] = system: P. aeruginosa PA259-96196; type: cell-based, Pseudomonas aeruginosa; conditions: for MICUTBLP: UTBLP alone
How it was run: as §1

P. aeruginosa PAO1 [6] = type: cell-based, Pseudomonas aeruginosa; conditions: for MICUTBLP: UTBLP alone
How it was run: as §1

E. cloacae 118564 [7] = assay: microbe, parasite or virus in culture; type: cell-based, Enterobacter cloacae; conditions: 118564, 18 h
How it was run: as §2

MRSA ATCC 33592 = type: cell-based, Staphylococcus aureus; conditions: ATCC 33592, 18 h
How it was run: as §2

S. aureus ATCC 29213 = type: cell-based, Staphylococcus aureus; conditions: ATCC 29213, 18 h
How it was run: as §2

P. aeruginosa PAO1 [8] = type: cell-based, Pseudomonas aeruginosa; conditions: PAO1, 18 h
How it was run: as §2

A. baumannii 92247 = type: cell-based, Acinetobacter baumannii; conditions: for MICUTBLP: UTBLP alone
How it was run: as §1

A. baumannii ATCC 17978 = type: cell-based, Acinetobacter baumannii; conditions: for MICUTBLP: UTBLP alone
How it was run: as §1

A. baumannii AB027 = type: cell-based, Acinetobacter baumannii; conditions: for MICUTBLP: UTBLP alone
How it was run: as §1

[9] = UTBLP in combination with novobiocin
[10] = UTBLP in combination with rifampicin
[11] = novobiocin in combination with the UTBLP
[12] = rifampicin in combination with the UTBLP
[13] = UTBLP in combination with chloramphenicol
[14] = UTBLP in combination with niclosamide
[15] = chloramphenicol in combination with the UTBLP
[16] = niclosamide in combination with the UTBLP

`CCCCCCCC(=O)NCCCC[C@H](NC(=O)CCCCCCC)C(=O)N[C@@H](CCCC[N+](C)(C)C)C(=O)N[C@@H](CCCC[N+](C)(C)C)C(=O)N[C@@H](CCCC[N+](C)(C)C)C(=O)N[C@@H](CCCC[N+](C)(C)C)C(N)=O` [UTBLP 8] (Octanoyl-K(Octanoyl)[Lys(Me3)][Lys(Me3)][Lys(Me3)][Lys(Me3)]-NH2) was tested, and the Interpretation (E. cloacae 118564 [1]; UTBLP + novobiocin) was “Synergy (FICI ≤ 0.5 is synergistic)”, the Interpretation (E. cloacae 118564 [1]; UTBLP + rifampicin) was “Additive (0.5 < x ≤ 4 is additive)” and the MICUTBLP (E. cloacae 118564 [1]; plate with novobiocin) was over 128 µg/mL. The MICUTBLP (E. cloacae 118564 [1]; plate with rifampicin) was over 128 µg/mL, the “MICUTBLP [MICcombo]” value (E. cloacae 118564 [1]; [9]) was 16 µg/mL and the “MICUTBLP [MICcombo]” value (E. cloacae 118564 [1]; [10]) was 16 µg/mL. For the same compound, the “MICantibiotic [MICcombo]” value (E. cloacae 118564 [1]; [11]) was 32 µg/mL, the “MICantibiotic [MICcombo]” value (E. cloacae 118564 [1]; [12]) was 4 µg/mL and the MIC [2] was over 128 µg/mL. The MIC [3] was over 128 µg/mL, the Interpretation ([4]; UTBLP + novobiocin) was “Additive (0.5 < x ≤ 4 is additive)” and the Interpretation ([4]; UTBLP + rifampicin) was “Additive (0.5 < x ≤ 4 is additive)”. The MICUTBLP ([4]; plate with novobiocin) was over 128 µg/mL, the MICUTBLP ([4]; plate with rifampicin) was over 128 µg/mL and the “MICUTBLP [MICcombo]” value [4, 9] was 16 µg/mL. For the same compound, the “MICUTBLP [MICcombo]” value [4, 10] was 16 µg/mL, the “MICantibiotic [MICcombo]” value [4, 11] was 1024 µg/mL and the “MICantibiotic [MICcombo]” value [4, 12] was 512 µg/mL. For the same compound, the Interpretation ([5]; UTBLP + novobiocin) was “Additive (0.5 < x ≤ 4 is additive)”, the Interpretation ([5]; UTBLP + rifampicin) was “Additive (0.5 < x ≤ 4 is additive)” and the MICUTBLP ([5]; plate with novobiocin) was over 128 µg/mL. The MICUTBLP ([5]; plate with rifampicin) was over 128 µg/mL, the “MICUTBLP [MICcombo]” value [5, 9] was 16 µg/mL and the “MICUTBLP [MICcombo]” value [5, 10] was 16 µg/mL. The “MICantibiotic [MICcombo]” value [5, 11] was 1024 µg/mL, the “MICantibiotic [MICcombo]” value [5, 12] was 16 µg/mL and the Interpretation (P. aeruginosa PAO1 [6]; UTBLP + chloramphenicol) was “Additive (0.5 < x ≤ 4 is additive)”. For the same compound, the Interpretation (P. aeruginosa PAO1 [6]; UTBLP + niclosamide) was “Additive (0.5 < x ≤ 4 is additive)”, the Interpretation (P. aeruginosa PAO1 [6]; UTBLP + novobiocin) was “Additive (0.5 < x ≤ 4 is additive)” and the Interpretation (P. aeruginosa PAO1 [6]; UTBLP + rifampicin) was “Additive (0.5 < x ≤ 4 is additive)”. It also gave an MICUTBLP (P. aeruginosa PAO1 [6]; plate with chloramphenicol) of over 128 µg/mL, an MICUTBLP (P. aeruginosa PAO1 [6]; plate with niclosamide) of over 128 µg/mL and an MICUTBLP (P. aeruginosa PAO1 [6]; plate with novobiocin) of over 128 µg/mL. The MICUTBLP (P. aeruginosa PAO1 [6]; plate with rifampicin) was over 128 µg/mL, the “MICUTBLP [MICcombo]” value (P. aeruginosa PAO1 [6]; [13]) was 0.25 µg/mL and the “MICUTBLP [MICcombo]” value (P. aeruginosa PAO1 [6]; [14]) was 0.25 µg/mL. The “MICUTBLP [MICcombo]” value (P. aeruginosa PAO1 [6]; [9]) was 0.25 µg/mL, the “MICUTBLP [MICcombo]” value (P. aeruginosa PAO1 [6]; [10]) was 0.25 µg/mL and the “MICantibiotic [MICcombo]” value (P. aeruginosa PAO1 [6]; [15]) was 16 µg/mL. For the same compound, the “MICantibiotic [MICcombo]” value (P. aeruginosa PAO1 [6]; [16]) was 1024 µg/mL, the “MICantibiotic [MICcombo]” value (P. aeruginosa PAO1 [6]; [11]) was 512 µg/mL and the “MICantibiotic [MICcombo]” value (P. aeruginosa PAO1 [6]; [12]) was 16 µg/mL. The MIC (E. cloacae 118564 [7]) was over 128 µg/mL, the MIC (MRSA ATCC 33592) was over 128 µg/mL and the MIC (S. aureus ATCC 29213) was over 128 µg/mL. The MIC (P. aeruginosa PAO1 [8]) was over 128 µg/mL, the Interpretation (A. baumannii 92247; UTBLP + novobiocin) was “Synergy (FICI ≤ 0.5 is synergistic)” and the Interpretation (A. baumannii 92247; UTBLP + rifampicin) was “Synergy (FICI ≤ 0.5 is synergistic)”. The MICUTBLP (A. baumannii 92247; plate with novobiocin) was 128 µg/mL, the MICUTBLP (A. baumannii 92247; plate with rifampicin) was 128 µg/mL and the “MICUTBLP [MICcombo]” value (A. baumannii 92247; [9]) was 16 µg/mL. For the same compound, the “MICUTBLP [MICcombo]” value (A. baumannii 92247; [10]) was 16 µg/mL, the “MICantibiotic [MICcombo]” value (A. baumannii 92247; [11]) was 0.125 µg/mL and the “MICantibiotic [MICcombo]” value (A. baumannii 92247; [12]) was 0.5 µg/mL. For the same compound, the Interpretation (A. baumannii ATCC 17978; UTBLP + chloramphenicol) was “Additive (0.5 < x ≤ 4 is additive)”, the Interpretation (A. baumannii ATCC 17978; UTBLP + niclosamide) was “Synergy (FICI ≤ 0.5 is synergistic)” and the Interpretation (A. baumannii ATCC 17978; UTBLP + novobiocin) was “Synergy (FICI ≤ 0.5 is synergistic)”. The Interpretation (A. baumannii ATCC 17978; UTBLP + rifampicin) was “Synergy (FICI ≤ 0.5 is synergistic)”, the MICUTBLP (A. baumannii ATCC 17978; plate with chloramphenicol) was over 128 µg/mL and the MICUTBLP (A. baumannii ATCC 17978; plate with niclosamide) was over 128 µg/mL. The MICUTBLP (A. baumannii ATCC 17978; plate with novobiocin) was over 128 µg/mL, the MICUTBLP (A. baumannii ATCC 17978; plate with rifampicin) was over 128 µg/mL and the “MICUTBLP [MICcombo]” value (A. baumannii ATCC 17978; [13]) was 0.25 µg/mL. For the same compound, the “MICUTBLP [MICcombo]” value (A. baumannii ATCC 17978; [14]) was 2 µg/mL, the “MICUTBLP [MICcombo]” value (A. baumannii ATCC 17978; [9]) was 16 µg/mL and the “MICUTBLP [MICcombo]” value (A. baumannii ATCC 17978; [10]) was 16 µg/mL. The “MICantibiotic [MICcombo]” value (A. baumannii ATCC 17978; [15]) was 64 µg/mL, the “MICantibiotic [MICcombo]” value (A. baumannii ATCC 17978; [16]) was 16 µg/mL and the “MICantibiotic [MICcombo]” value (A. baumannii ATCC 17978; [11]) was 4 µg/mL. The “MICantibiotic [MICcombo]” value (A. baumannii ATCC 17978; [12]) was 0.25 µg/mL, the Interpretation (A. baumannii AB027; UTBLP + novobiocin) was “Synergy (FICI ≤ 0.5 is synergistic)” and the Interpretation (A. baumannii AB027; UTBLP + rifampicin) was “Synergy (FICI ≤ 0.5 is synergistic)”. For the same compound, the MICUTBLP (A. baumannii AB027; plate with novobiocin) was over 128 µg/mL, the MICUTBLP (A. baumannii AB027; plate with rifampicin) was over 128 µg/mL and the “MICUTBLP [MICcombo]” value (A. baumannii AB027; [9]) was 16 µg/mL. For the same compound, the “MICUTBLP [MICcombo]” value (A. baumannii AB027; [10]) was 16 µg/mL, the “MICantibiotic [MICcombo]” value (A. baumannii AB027; [11]) was 2 µg/mL and the “MICantibiotic [MICcombo]” value (A. baumannii AB027; [12]) was 0.25 µg/mL.
